Source: publication PMC7655067, “Crystal structure-guided design of berberine-based novel chitinase inhibitors” (Journal of Enzyme Inhibition and Medicinal Chemistry, 2020)
Structures can show the parent of a compound that is named as a salt. Where two headings read alike, the source gives them in different places. Blank lines part the entries; values can stand above or below the compound they belong to.

Legend:
SmChiB [1] = target: T1, SmChiB (Serratia marcescens, UniProt P11797); assay: biochemical; assay type: biochemical
T1 construct: made in house; host or cells: Escherichia coli BL21 (DE3)
T1 sequence (P11797 42-499): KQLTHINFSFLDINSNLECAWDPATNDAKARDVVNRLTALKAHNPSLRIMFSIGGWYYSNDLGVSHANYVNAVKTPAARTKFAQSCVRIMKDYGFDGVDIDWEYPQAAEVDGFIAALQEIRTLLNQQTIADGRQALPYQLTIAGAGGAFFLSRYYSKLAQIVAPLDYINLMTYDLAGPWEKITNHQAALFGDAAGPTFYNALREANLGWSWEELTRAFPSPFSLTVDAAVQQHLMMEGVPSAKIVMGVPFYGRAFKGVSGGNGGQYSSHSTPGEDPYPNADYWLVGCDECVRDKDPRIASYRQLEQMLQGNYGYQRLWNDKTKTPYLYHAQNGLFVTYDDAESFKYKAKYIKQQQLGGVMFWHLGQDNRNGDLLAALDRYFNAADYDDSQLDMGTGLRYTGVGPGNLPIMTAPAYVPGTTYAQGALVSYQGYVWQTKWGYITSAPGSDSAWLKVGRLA
Experimental: (§1) ChiB from S. marcescens was expressed in Escherichia coli BL21 (DE3). The other GH18 chitinases including the catalytic domains of OfChtI from O. furnacalis, human HsCht and human hAMCase were expressed in P. pastoris GS115. All the proteins were purified by immobilised metal affinity chromatography (IMAC) as described previously. The purities of the target proteins were analysed by SDS-PAGE followed by Coomassie Brilliant Blue R-250 staining.
(§2) The activity of GH18 chitinases were determined using MU-(GlcNAc)2 as a substrate. The reaction mixtures used for determining the inhibitor activity of compounds consisted of 100 μL of 20 nM enzyme, 4 μM MU-(GlcNAc)2, 1 or 10 μM inhibitors and 2% DMSO in the buffer (20 mM sodium phosphate, pH 6.0, for SmChiB, OfChtI and HsCht; 20 mM sodium citrate, pH 5.2, for hAMCase). The reaction in the absence of compounds was used as a positive control. After incubating at 30 °C for 25 min, an equal volume of 0.5 M sodium carbonate was added to the reaction mixtures to terminate the reaction, and the fluorescence produced by the released MU was quantified using a Varioskan Flash microplate reader (Thermo Fisher Scientific, Waltham, MA), with excitation and emission wavelengths of 360 and 450 nm, respectively. Experiments were performed in triplicate. […] The Ki values and types of inhibition were determined by linear fitting of the data in Dixon plots.

SmChiB [2] = target: T1, SmChiB; assay: Tryptophan fluorescence quenching, Kd by modified Stern-Volmer equation; assay type: binding
Experimental: (§3) Tryptophan fluorescence (295 nm excitation) was measured at 25 °C from 300 to 400 nm with a Varioskan Flash microplate reader using excitation and emission band passes of 5 nm. Fluorescence quenching experiments were performed in a 200 μL mixture containing 1 μM protein in the buffer (20 mM sodium phosphate, pH 6.0, for SmChiB, OfChtI and HsCht; 20 mM sodium citrate, pH 5.2, for hAMCase), and by the successive addition of aliquots of compounds stock solution. Since the crystal structure confirmed that berberine binding to SmChiB in a 1:1 ratio, the dissociation constant Kd were then determined using the modified Stern-Volmer equation[35]^,[36]. […]

OfChtI [3] = target: T2, OfChtI (Ostrinia furnacalis, UniProt Q2V6H4); assay: Inhibitory activity assay with MU-(GlcNAc)2, Ki by Dixon plots; assay type: biochemical; conditions: for Ki: pH 6.0, Dixon plots
T2 sequence (Q2V6H4 entry or part of it): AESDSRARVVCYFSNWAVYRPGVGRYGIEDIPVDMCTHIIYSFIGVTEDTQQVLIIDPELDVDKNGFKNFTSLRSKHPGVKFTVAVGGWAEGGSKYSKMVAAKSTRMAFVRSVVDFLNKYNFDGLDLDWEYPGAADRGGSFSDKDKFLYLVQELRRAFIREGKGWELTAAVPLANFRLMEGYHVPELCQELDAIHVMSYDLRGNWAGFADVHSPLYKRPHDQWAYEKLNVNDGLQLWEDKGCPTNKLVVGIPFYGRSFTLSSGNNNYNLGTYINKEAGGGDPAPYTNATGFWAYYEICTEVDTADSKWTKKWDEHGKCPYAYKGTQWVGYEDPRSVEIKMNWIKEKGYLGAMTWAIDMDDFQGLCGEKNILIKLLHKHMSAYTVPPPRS
Experimental: as §1, §2

hAMCase [4] = target: T3, hAMCase (Homo sapiens, UniProt Q9BZP6); assay: as above; assay type: biochemical; conditions: pH 5.2
T3 construct: including the catalytic domains of OfChtI from O. furnacalis, human HsCht and human hAMCase; made in house; host or cells: Pichia pastoris GS115
T3 sequence (Q9BZP6 22-390 limits assumed): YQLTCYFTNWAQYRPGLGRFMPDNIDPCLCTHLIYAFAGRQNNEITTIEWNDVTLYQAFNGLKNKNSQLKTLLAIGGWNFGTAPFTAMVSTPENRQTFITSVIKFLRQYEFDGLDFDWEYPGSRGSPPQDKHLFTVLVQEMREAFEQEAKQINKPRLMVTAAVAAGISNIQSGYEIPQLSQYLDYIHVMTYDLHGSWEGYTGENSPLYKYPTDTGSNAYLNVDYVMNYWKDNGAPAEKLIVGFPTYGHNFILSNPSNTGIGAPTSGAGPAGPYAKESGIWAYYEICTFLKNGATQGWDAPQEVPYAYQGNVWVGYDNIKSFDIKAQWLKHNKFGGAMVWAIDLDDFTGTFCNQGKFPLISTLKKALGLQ
Experimental: as §1, §2

HsCht [5] = target: T4, HsCht (Homo sapiens, UniProt Q13231); assay: as above; assay type: biochemical; conditions: pH 6.0
T4 construct: including the catalytic domains of OfChtI from O. furnacalis, human HsCht and human hAMCase; made in house; host or cells: Pichia pastoris GS115
T4 sequence (Q13231 22-388 limits assumed): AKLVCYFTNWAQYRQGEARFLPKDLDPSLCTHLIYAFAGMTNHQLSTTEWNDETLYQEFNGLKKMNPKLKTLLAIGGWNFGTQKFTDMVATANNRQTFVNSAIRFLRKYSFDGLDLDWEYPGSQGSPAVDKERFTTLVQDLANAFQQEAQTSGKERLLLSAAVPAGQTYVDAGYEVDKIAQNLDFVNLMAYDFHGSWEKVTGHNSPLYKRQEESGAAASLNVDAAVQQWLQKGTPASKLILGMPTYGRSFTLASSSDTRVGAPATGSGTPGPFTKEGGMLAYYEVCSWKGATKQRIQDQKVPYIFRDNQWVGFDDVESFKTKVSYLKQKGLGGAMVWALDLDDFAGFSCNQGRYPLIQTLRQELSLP
Experimental: as §1, §2

OfChtI [6] = target: T2, OfChtI; assay: Tryptophan fluorescence quenching, Kd by modified Stern-Volmer equation; assay type: binding
Experimental: as §3

hAMCase [7] = target: T3, hAMCase; assay: as above; assay type: binding; conditions: pH 5.2
Experimental: (§4) Fluorescence quenching experiments were performed in a 200 μL mixture containing 1 μM protein in the buffer (20 mM sodium phosphate, pH 6.0, for SmChiB, OfChtI and HsCht; 20 mM sodium citrate, pH 5.2, for hAMCase), and by the successive addition of aliquots of compounds stock solution.

HsCht [8] = target: T4, HsCht; assay: as above; assay type: binding; conditions: pH 6.0
Experimental: as §4

OfChtI [9] = target: T2, OfChtI; design: method as in PMID 30135205; conditions: cited from earlier work
hAMCase [10] = target: T3, hAMCase; design: method as in PMID 30135205; conditions: cited from earlier work
HsCht [11] = target: T4, HsCht; design: method as in PMID 30135205; conditions: cited from earlier work
[12] = SmChiB, pH 6.0, Dixon plots, read-out: Ki
[13] = SmChiB, tryptophan fluorescence quenching, pH 6.0, read-out: Kd

melting point: 192 °C (dec.)
Compound: COC(=O)CCC(=O)Oc1c(OC)ccc2cc3[n+](cc12)CCc1cc2c(cc1-3)OCO2 (as salt: chloride) [4a]

Ki (SmChiB [1]; [12]): 2.36 µM
Kd (SmChiB [2]; [13]): 2.99 µM
Ki (OfChtI [3]): 7.28 µM
Ki (hAMCase [4]): 4.62 µM
Ki (HsCht [5]): 11.4 µM
Compound: COc1ccc2cc3[n+](cc2c1OC(=O)c1ccccc1)CCc1cc2c(cc1-3)OCO2 [4b]

Compound: COc1ccc2cc3[n+](cc2c1OC(=O)c1ccc(F)nc1)CCc1cc2c(cc1-3)OCO2 [4c]
Ki (SmChiB [1]; [12]): 0.15 µM
Kd (OfChtI [6]; OfChtI, tryptophan fluorescence quenching, pH 6.0, read-out: Kd): 2.58 µM
Kd (SmChiB [2]; [13]): 0.19 µM
inhibitory activity increase compared to berberine (OfChtI [3]; from Ki values): 7.5 fold
Ki (OfChtI [3]): 3.03 µM

Ki (SmChiB [1]; [12]): 0.68 µM
Kd (SmChiB [2]; [13]): 1.12 µM
Ki (OfChtI [3]): 6.43 µM
Ki (hAMCase [4]): 7.43 µM
Ki (HsCht [5]): 8.23 µM
Compound: COC(=O)CCC(=O)Oc1c(OC)ccc2cc3[n+](cc12)CCc1cc2c(cc1-3)OCO2 [4a]

Compound: COc1ccc2cc3[n+](cc2c1OC)CCc1cc2c(cc1-3)OCO2 [Berberine, berberine]
Ki (SmChiB [1]): 11.8 µM
type of inhibition (SmChiB [1]; SmChiB, Dixon plots): competitive inhibitor
Kd (hAMCase [7]): 58 µM
Kd (HsCht [8]): 21.9 µM
Ki (OfChtI [9]): 23 µM
type of inhibition (OfChtI [9]): competitive inhibitor
Ki (hAMCase [10]): 65 µM
type of inhibition (hAMCase [10]): competitive inhibitor
Ki (HsCht [11]): 19 µM
type of inhibition (HsCht [11]): competitive inhibitor
Kd (OfChtI [6]): 20.6 µM
Kd (SmChiB [2]): 12 µM
